Measured values reported in patent publication US12661335B2, “Halogenated xanthene-containing topical anti-gram-positive bacterial ophthalmic composition and method” (Provectus Pharmatech, Inc., priority 2021, dated 2026).
Converted amounts (≈) assume the structure as drawn. Where two headings read alike, the source gives them in different places.

Key:
[1] = system: Streptococcus salivarius subsp. Salivarius 7073 ™; assay: MIC, broth dilution method, dark condition; assay type: cell-based
Gram-positive bacteria = assay: MIC summary for Gram-positive bacteria, broth dilution; assay type: cell-based
Source text: Under the dark condition RB is known to display antibacterial activity at high concentrations.
Provectus has established a manufacturing and purification process for pharmaceutical-grade RB that fulfills both cGMP and ICH requirements. We have evaluated the antibacterial activity and cytotoxicity of a pharmaceutical-grade RB formulated product (PV-10®) as an exemplary RB compound in illuminating and dark conditions.

[2] = system: Staphylococcus aureus subsp. Aureus BAA-2094 ™ (a MRSA strain); assay: MIC, broth dilution method, dark condition; assay type: cell-based; conditions: Table 1 entry 9, 24 h
[3] = system: Staphylococcus aureus subsp. Aureus BAA-42 ™ (a MRSA strain); assay: MIC, broth dilution method, dark condition; assay type: cell-based; conditions: Table 1 entry 7, 24 h
[4] = system: Staphylococcus aureus USA100 strains 71080 (VRS8, a vancomycin-resistant strain); assay: MIC, broth dilution method, dark condition; assay type: cell-based; conditions: Table 1 entry 15, 24 h
[5] = system: Staphylococcus aureus 6538 ™; assay: MIC, broth dilution method, dark condition; assay type: cell-based; conditions: Table 1 entry 4, 24 h
[6] = system: multidrug-resistant Fusarium keratoplasticum; conditions: RB about 0.1%, photoactivated by 15 minutes irradiation at 375 nm or 518 nm; cited from earlier work
[7] = system: Staphylococcus aureus subsp. Aureus BAA-41 ™ (a MRSA strain); assay: MIC, broth dilution method, dark condition; assay type: cell-based; conditions: Table 1 entry 6, 24 h
[8] = system: Staphylococcus aureus AIS2006032 (a vancomycin-resistant strain); assay: MIC, broth dilution method, dark condition; assay type: cell-based; conditions: Table 1 entry 12, 24 h
[9] = system: Enterococcus faecium UAA714 (a vancomycin-resistant strain); assay: MIC, broth dilution method, dark condition; assay type: cell-based; conditions: Table 1 entry 22, 24 h
[10] = system: Staphylococcus aureus strain AIS 1000505 (VRS10, a vancomycin-resistant strain); assay: MIC, broth dilution method, dark condition; assay type: cell-based; conditions: Table 1 entry 14, 24 h
[11] = system: Mycobacterium smagmatis 607 ™; assay: MIC, broth dilution method, dark condition; assay type: cell-based, Mycobacterium smegmatis
[12] = system: Bacillus cereus NRRL B-569; assay: MIC, broth dilution method, dark condition; assay type: cell-based; conditions: NRRLB569, Table 1 entry 2, 24 h
[13] = system: Enterococcus faecalis 19433 ™; assay: MIC, broth dilution method, dark condition; assay type: cell-based; conditions: Table 1 entry 17, 24 h
[14] = system: biofilms of S. aureus 6508™; assay: Biofilm eradication assay; assay type: cell-based, Staphylococcus aureus; conditions: for viable bacteria in biofilm: dark condition
Protocol: 62:394-399 (2013)], and was used as a control.
Linezolid was applied as a positive control at very high concentration of 600 μg/mL (>100×MIC for the planktonic cells) in biofilm assays reported by Kurosu et al., Molecules 27:322 (2022).

[15] = system: Enterococcus faecium 349 ™; assay: MIC, broth dilution method, dark condition; assay type: cell-based; conditions: Table 1 entry 18, 24 h
F. solani = conditions: three days of incubation, cited from earlier work
[16] = system: Enterococcus faecium patient #3-1, NR-31912 (a vancomycin-resistant strain); assay: MIC, broth dilution method, dark condition; assay type: cell-based; conditions: Table 1 entry 21, 24 h
[17] = system: Staphylococcus aureus subsp. Aureus 33592 ™ (a methicillin and gentamicin resistant strain); assay: MIC, broth dilution method, dark condition; assay type: cell-based; conditions: Table 1 entry 11, 24 h
[18] = system: Mycobacteroides abscessus 19977 ™; assay: MIC, broth dilution method, dark condition; assay type: cell-based; conditions: Table 1 entry 29, 24 h
[19] = system: Saccharomyces cerevisiae BY4743; assay: MIC, broth dilution method, dark condition; assay type: cell-based; conditions: Table 1 entry 30, 24 h
[20] = system: Bacillus subtilis ATCC6051; assay: MIC, broth dilution method, dark condition; assay type: cell-based; conditions: Table 1 entry 1, 24 h
[21] = system: Mycobacterium kansasii 824 ™; assay: MIC, broth dilution method, dark condition; assay type: cell-based; conditions: Table 1 entry 27, 24 h
[22] = system: Enterococcus faecium NR-32065 (a vancomycin- resistant strain); assay: MIC, broth dilution method, dark condition; assay type: cell-based; conditions: Table 1 entry 20, 24 h
[23] = concentrations below 2.0%; cited from earlier work
[24] = system: Staphylococcus aureus subsp. Aureus BAA-1683 (a MRSA strain); assay: MIC, broth dilution method, dark condition; assay type: cell-based; conditions: Table 1 entry 5, 24 h
C. albicans = conditions: three days of incubation, cited from earlier work
Bacillus cereus 13061 ™ = assay: MIC, broth dilution method, dark condition; assay type: cell-based; conditions: Table 1 entry 3, 24 h
[25] = system: progressive infectious keratitis; conditions: cited from earlier work
[26] = system: Staphylococcus aureus BAA-2313 ™ (a MRSA strain); assay: MIC, broth dilution method, dark condition; assay type: cell-based; conditions: Table 1 entry 10, 24 h
[27] = system: patient-isolated methicillin-resistant Staphylococcus aureus (MRSA); conditions: cited from earlier work

In the case of `O=C(O)c1c(Cl)c(Cl)c(Cl)c(Cl)c1-c1c2cc(I)c(=O)c(I)c-2oc2c(I)c(O)c(I)cc12` [RB, 4,5,6,7-tetrachloro-2′,4′,5′,7′-tetraiodofluorescein], the MIC ([1]; Streptococcus salivarius, Table 1 entry 23, broth dilution, dark, 24 h) is reported as 25 µg/mL (≈ 25.7 µM), the “susceptibility to RB” value ([1]; entry 23) is reported as “susceptible” and the “concentration showing antibacterial activity against all Gram-positive bacteria of entries 1-23” value (Gram-positive bacteria; dark condition, Table 1) is reported as 25.0 to 100 µg/mL. For the same compound, the MIC (Gram-positive bacteria; saline-diluted PV-10, except Streptococcus pneumoniae sp., lighting not given, read-out: MIC against most Gram-positive bacteria) was 0.39 to 3.1 µg/mL (≈ 0.401 to 3.18 µM), the MIC [2] was 25 µg/mL (≈ 25.7 µM) and the MIC [3] was 50 µg/mL (≈ 51.4 µM). For the same compound, the MIC [4] was 25 µg/mL (≈ 25.7 µM), the MIC [5] was 50 µg/mL (≈ 51.4 µM) and the “fungal growth inhibition in vitro” value [6] was “could inhibit the fungal growth”. It also gave an MIC [7] of 25 µg/mL (≈ 25.7 µM), an MIC [8] of 50 µg/mL (≈ 51.4 µM) and an MIC [9] of 50 µg/mL (≈ 51.4 µM). For the same compound, the MIC [10] was 25 µg/mL (≈ 25.7 µM), the MIC ([11]; Mycobacterium, Table 1 entry 25, broth dilution, dark, 24 h, read-out: MIC) was 25 µg/mL (≈ 25.7 µM) and the MIC ([11]; dark condition, triplicated, read-out: MIC (μg/mL) against M. smegmatis 607 ™ (wild-type)) was 12.5 µg/mL (≈ 12.8 µM). For the same compound, the MIC [12] was 50 µg/mL (≈ 51.4 µM), the MIC [13] was 25 µg/mL (≈ 25.7 µM) and the “viable bacteria in biofilm” value ([14]; RB 50.0 μg/mL (2×MIC under dark)) was “significantly reduced the number of viable bacteria”. The “viable bacteria in biofilm” value ([14]; RB 1,000 μg/mL) was “No viable bacteria”, the “biofilm eradication, log reduction” value ([14]; under the fluorescent light, RB 30.0 μg/mL (38×MIC)) was 7 log reduction and the MIC [15] was 50 µg/mL (≈ 51.4 µM). For the same compound, the “Day 3 Growth Inhibition Percentage, RB + 518 nm Irradiation” value (F. solani; 518 nm, 5.4 J/cm^2) was 78.2 ± 2.1 Percentage, the “Day 3 Growth Inhibition Percentage, RB Only” value (F. solani; dark, no irradiation) was 7.3 ± 1.1 Percentage and the MIC [16] was 50 µg/mL (≈ 51.4 µM). It also gave an MIC [17] of 50 µg/mL (≈ 51.4 µM), an MIC [18] of 50 µg/mL (≈ 51.4 µM) and an MIC [19] of 125 µg/mL (≈ 128 µM). For the same compound, the MIC [20] was 50 µg/mL (≈ 51.4 µM), the MIC [21] was 50 µg/mL (≈ 51.4 µM) and the MIC [22] was 50 µg/mL (≈ 51.4 µM). For the same compound, the “safety of RB under natural and artificial lights” value [23] was “considered to be safe”, the MIC [24] was 50 µg/mL (≈ 51.4 µM) and the “Day 3 Growth Inhibition Percentage, RB + 518 nm Irradiation” value (C. albicans; 518 nm, 5.4 J/cm^2) was 95.6 ± 3 Percentage. For the same compound, the “Day 3 Growth Inhibition Percentage, RB Only” value (C. albicans; dark, no irradiation) was 42.2 ± 3.7 Percentage, the MIC (Bacillus cereus 13061 ™) was 50 µg/mL (≈ 51.4 µM) and the “Successful RB-PDAT (avoidance of therapeutic keratoplasty), share of cases” value ([25]; 0.1 or 0.2% RB on de-epithelized corneas 30 minutes, then 5.4 J/cm^2 green LED light 15 minutes, 18 patients unresponsive to standard therapy) was 72%. The “average time to clinical resolution after RB-PDAT” value ([25]; 0.1 or 0.2% RB, 5.4 J/cm^2 green LED light) was 46.9 ± 26.4 days, the MIC [26] was 25 µg/mL (≈ 25.7 µM) and the “growth inhibition of MRSA strain 1” value ([27]; RB 0.03% in dark conditions) was “incomplete inhibition”. The “growth inhibition of MRSA strain 2” value ([27]; RB 0.03% in dark conditions) was “complete inhibition”, the “growth inhibition of both MRSA strains” value ([27]; RB 0.1% in the dark) was “Complete growth inhibition” and the “growth inhibition of both MRSA strains” value ([27]; RB 0.1 and 0.03%, ambient room light or green LED irradiation (5.4 J/cm^2)) was “Complete growth inhibition”.
